Measured values as given in article PMC12340637, “Transport of Small Aliphatic Amines by Polyspecific Solute Carriers: Deciphering Structure–Function Relationships” (ACS Pharmacology & Translational Science, 2025).
Like-named read-outs stand apart in the source and are kept apart here. Marks after values point to notes of the source that are not given here. Values belong to the compound of their own block, whether it stands above or below them.

Legend:
OCT1 (SLC22A1) = target: T1, OCT1 (SLC22A1) (Homo sapiens, UniProt O15245); assay: Cellular uptake into OCT1-overexpressing HEK293 cells vs EV control cells (HPLC-MS/MS); conditions: for uptake ratio OCT1 (transporter-overexpressing cells over EV control cells): mean (±SD, N): 2 min, HEK293; for K m (±SEM) / v max (±SEM): OCT1, net uptake, Michaelis–Menten
T1 sequence (O15245 1-554): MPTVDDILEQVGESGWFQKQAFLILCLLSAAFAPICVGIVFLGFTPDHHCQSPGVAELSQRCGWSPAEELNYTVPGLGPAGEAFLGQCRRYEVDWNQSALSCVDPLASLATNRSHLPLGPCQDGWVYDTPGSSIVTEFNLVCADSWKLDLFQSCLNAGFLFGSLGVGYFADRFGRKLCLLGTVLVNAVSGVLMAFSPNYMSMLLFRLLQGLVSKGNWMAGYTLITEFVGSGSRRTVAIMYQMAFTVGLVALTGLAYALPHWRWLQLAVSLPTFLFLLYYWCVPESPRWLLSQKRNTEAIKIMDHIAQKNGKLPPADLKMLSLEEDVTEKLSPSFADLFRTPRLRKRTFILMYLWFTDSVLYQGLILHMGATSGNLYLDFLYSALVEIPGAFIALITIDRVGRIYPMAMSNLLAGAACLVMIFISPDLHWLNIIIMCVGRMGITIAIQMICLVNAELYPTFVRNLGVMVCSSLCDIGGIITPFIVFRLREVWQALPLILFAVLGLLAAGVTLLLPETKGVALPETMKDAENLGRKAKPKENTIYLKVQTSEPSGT

MATE1 (SLC47A1) = target: T2, MATE1 (SLC47A1) (Homo sapiens, UniProt Q96FL8); assay: Cellular uptake into MATE1-overexpressing HEK293 cells vs EV control cells (HPLC-MS/MS); conditions: for uptake ratio MATE1 (transporter-overexpressing cells over EV control cells): mean (±SD, N): 2.5 μM substrate, 1 min, 30 mM NH4Cl preincubation, HEK293; for K m (±SEM) / v max (±SEM): MATE1, net uptake, Michaelis–Menten; for substrate activity at MATE1 (in words): uptake ratio ≥2 = notable transport
T2 sequence (Q96FL8 1-570): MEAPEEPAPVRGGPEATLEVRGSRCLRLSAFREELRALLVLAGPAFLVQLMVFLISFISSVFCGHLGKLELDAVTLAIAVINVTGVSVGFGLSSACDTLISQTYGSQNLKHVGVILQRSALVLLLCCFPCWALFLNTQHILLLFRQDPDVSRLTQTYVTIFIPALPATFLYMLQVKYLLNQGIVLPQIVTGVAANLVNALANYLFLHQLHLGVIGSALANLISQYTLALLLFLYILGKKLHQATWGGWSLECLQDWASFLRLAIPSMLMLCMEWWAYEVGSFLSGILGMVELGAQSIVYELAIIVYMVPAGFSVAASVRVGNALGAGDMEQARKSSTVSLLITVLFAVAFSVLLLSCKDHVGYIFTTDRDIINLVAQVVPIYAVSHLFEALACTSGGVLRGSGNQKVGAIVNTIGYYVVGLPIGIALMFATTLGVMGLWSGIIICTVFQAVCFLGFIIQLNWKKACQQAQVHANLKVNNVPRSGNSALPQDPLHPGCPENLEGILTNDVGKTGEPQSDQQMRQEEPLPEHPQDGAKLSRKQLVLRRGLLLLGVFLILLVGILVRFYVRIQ

OCT2 (SLC22A2) = target: T3, OCT2 (SLC22A2) (Homo sapiens, UniProt O15244); assay: Cellular uptake into OCT2-overexpressing HEK293 cells vs EV control cells (HPLC-MS/MS); conditions: for uptake ratio OCT2 (transporter-overexpressing cells over EV control cells): mean (±SD, N): 2 min, HEK293; for K m (±SEM) / v max (±SEM): OCT2, net uptake, Michaelis–Menten; for substrate activity at OCT2 (in words): uptake ratio ≥2 = notable transport
T3 sequence (O15244 1-555): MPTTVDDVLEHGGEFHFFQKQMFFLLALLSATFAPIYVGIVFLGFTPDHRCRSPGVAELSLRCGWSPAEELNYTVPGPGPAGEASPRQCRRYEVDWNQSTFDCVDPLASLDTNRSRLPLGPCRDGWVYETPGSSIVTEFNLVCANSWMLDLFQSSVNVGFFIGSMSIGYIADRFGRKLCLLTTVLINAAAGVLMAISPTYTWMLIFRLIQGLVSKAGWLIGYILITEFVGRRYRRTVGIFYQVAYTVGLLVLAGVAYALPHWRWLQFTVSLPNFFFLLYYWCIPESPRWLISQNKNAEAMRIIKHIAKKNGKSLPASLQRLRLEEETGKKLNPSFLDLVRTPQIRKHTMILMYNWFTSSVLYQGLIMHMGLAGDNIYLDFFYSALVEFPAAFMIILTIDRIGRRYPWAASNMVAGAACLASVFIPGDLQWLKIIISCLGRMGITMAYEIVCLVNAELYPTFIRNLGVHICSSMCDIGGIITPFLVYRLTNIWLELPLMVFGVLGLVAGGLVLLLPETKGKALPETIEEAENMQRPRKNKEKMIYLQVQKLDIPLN

OCT3 (SLC22A3) = target: T4, OCT3 (SLC22A3) (Homo sapiens, UniProt O75751); assay: Cellular uptake into OCT3-overexpressing HEK293 cells vs EV control cells (HPLC-MS/MS); conditions: for uptake ratio OCT3 (transporter-overexpressing cells over EV control cells): mean (±SD, N): 2 min, HEK293; for K m (±SEM) / v max (±SEM): OCT3, net uptake, Michaelis–Menten
T4 sequence (O75751 1-556): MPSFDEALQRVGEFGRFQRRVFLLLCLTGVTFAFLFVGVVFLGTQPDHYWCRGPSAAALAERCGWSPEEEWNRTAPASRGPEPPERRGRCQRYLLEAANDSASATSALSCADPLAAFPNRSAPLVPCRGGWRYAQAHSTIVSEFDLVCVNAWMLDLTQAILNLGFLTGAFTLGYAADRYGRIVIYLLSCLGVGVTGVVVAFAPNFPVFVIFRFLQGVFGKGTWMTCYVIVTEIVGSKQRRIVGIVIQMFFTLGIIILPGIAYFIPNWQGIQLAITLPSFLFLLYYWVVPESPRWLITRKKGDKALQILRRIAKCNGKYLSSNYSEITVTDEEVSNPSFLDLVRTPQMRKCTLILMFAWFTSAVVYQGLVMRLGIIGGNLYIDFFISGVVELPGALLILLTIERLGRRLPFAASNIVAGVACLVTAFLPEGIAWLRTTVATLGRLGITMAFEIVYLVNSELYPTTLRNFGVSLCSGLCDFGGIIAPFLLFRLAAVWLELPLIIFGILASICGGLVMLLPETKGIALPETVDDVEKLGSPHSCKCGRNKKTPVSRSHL

MATE2-K (SLC47A2) = MATE2-K (SLC47A2) (Homo sapiens, UniProt Q86VL8); assay: Cellular uptake into MATE2-K-overexpressing HEK293 cells vs EV control cells (HPLC-MS/MS); conditions: for uptake ratio MATE2K (transporter-overexpressing cells over EV control cells): mean (±SD, N): 2.5 μM substrate, 1 min, 30 mM NH4Cl preincubation, HEK293
Chain of MATE2-K (SLC47A2) (Q86VL8 1-566 isoform Q86VL8-3): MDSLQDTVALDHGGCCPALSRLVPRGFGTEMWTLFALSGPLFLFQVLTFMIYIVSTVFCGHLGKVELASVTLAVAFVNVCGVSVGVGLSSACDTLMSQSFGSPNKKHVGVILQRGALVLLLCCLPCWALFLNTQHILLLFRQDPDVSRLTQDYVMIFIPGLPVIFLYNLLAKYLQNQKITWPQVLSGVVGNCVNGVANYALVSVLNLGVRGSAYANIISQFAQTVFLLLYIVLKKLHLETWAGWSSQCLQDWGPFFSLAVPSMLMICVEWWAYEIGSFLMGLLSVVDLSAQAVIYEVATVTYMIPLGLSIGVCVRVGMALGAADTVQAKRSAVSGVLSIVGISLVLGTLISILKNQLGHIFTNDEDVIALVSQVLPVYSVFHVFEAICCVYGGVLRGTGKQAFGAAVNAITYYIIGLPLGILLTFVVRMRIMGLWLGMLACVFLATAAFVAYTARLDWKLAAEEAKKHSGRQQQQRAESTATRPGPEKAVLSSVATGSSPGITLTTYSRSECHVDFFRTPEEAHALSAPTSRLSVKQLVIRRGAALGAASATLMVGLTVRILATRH

[1] = uptake ratio ≥2 = notable transport

Structure (SMILES): CCN(CC)CCO [2-(diethylamino)ethanol]
uptake ratio MATE1 (transporter-overexpressing cells over EV control cells): mean (±SD, N) (MATE1 (SLC47A1)): 1 (0.13, 3)
uptake ratio OCT2 (transporter-overexpressing cells over EV control cells): mean (±SD, N) (OCT2 (SLC22A2); 10 μM substrate): 4.0 (1.5, 3)
v max (±SEM) (OCT2 (SLC22A2)): 794 (±109) pmol/mg protein/min
uptake ratio OCT3 (transporter-overexpressing cells over EV control cells): mean (±SD, N) (OCT3 (SLC22A3); 10 μM substrate): 1.2 (0.1, 3)
uptake ratio MATE2K (transporter-overexpressing cells over EV control cells): mean (±SD, N) (MATE2-K (SLC47A2)): 1.4 (0.2, 3)

Structure (SMILES): CN(CCCN)CCCN [3,3′-diamino-N-methyldipropylamin]
substrate activity at OCT1 (in words) (OCT1 (SLC22A1)): did not show any substrate activity
substrate activity at OCT3 (in words) (OCT3 (SLC22A3)): did not show any substrate activity
substrate activity at MATE2-K (in words) (MATE2-K (SLC47A2)): did not show any substrate activity

Structure (SMILES): CNCCCO [3-methylamino-1-propanol]
uptake ratio OCT1 (transporter-overexpressing cells over EV control cells): mean (±SD, N) (OCT1 (SLC22A1); 10 μM substrate): 1.2 (0.2, 3)
uptake ratio MATE1 (transporter-overexpressing cells over EV control cells): mean (±SD, N) (MATE1 (SLC47A1)): 0.8 (0.2, 4)
uptake ratio OCT2 (transporter-overexpressing cells over EV control cells): mean (±SD, N) (OCT2 (SLC22A2); 10 μM substrate): 2.6 (1.0, 4) ^a
uptake ratio OCT3 (transporter-overexpressing cells over EV control cells): mean (±SD, N) (OCT3 (SLC22A3); 10 μM substrate): 1.0 (0.2, 3)
uptake ratio MATE2K (transporter-overexpressing cells over EV control cells): mean (±SD, N) (MATE2-K (SLC47A2)): 1.1 (0.4, 4)

Structure (SMILES): NCCCCCCO [6-amino-1-hexanol]
K m (±SEM) (OCT1 (SLC22A1)): 487 (±171) μM
v max (±SEM) (OCT1 (SLC22A1)): 1656 (±294) pmol/mg protein/min
substrate activity at OCT1 (in words) (OCT1 (SLC22A1); [1]): notable transport
K m (±SEM) (MATE1 (SLC47A1)): 253 (±47) μM
v max (±SEM) (MATE1 (SLC47A1)): 14,115 (±1479) pmol/mg protein/min
substrate activity at MATE1 (in words) (MATE1 (SLC47A1)): notable transport
K m (±SEM) (OCT2 (SLC22A2)): 1176 (±273) μM
v max (±SEM) (OCT2 (SLC22A2)): 16,933 (±2577) pmol/mg protein/min
substrate activity at OCT2 (in words) (OCT2 (SLC22A2)): notable transport
K m (±SEM) (OCT3 (SLC22A3)): 1168 (±151) μM
v max (±SEM) (OCT3 (SLC22A3)): 4675 (±384) pmol/mg protein/min
substrate activity at OCT3 (in words) (OCT3 (SLC22A3); [1]): notable transport
uptake ratio MATE2K (transporter-overexpressing cells over EV control cells): mean (±SD, N) (MATE2-K (SLC47A2)): 1.4 (0.3, 3)

Next, values leading:

uptake ratio OCT1 (transporter-overexpressing cells over EV control cells): mean (±SD, N) (OCT1 (SLC22A1); 10 μM substrate): 1.4 (0.6, 5)
uptake ratio MATE1 (transporter-overexpressing cells over EV control cells): mean (±SD, N) (MATE1 (SLC47A1)): 1.1 (0.1, 3)
uptake ratio OCT2 (transporter-overexpressing cells over EV control cells): mean (±SD, N) (OCT2 (SLC22A2); 10 μM substrate): 3.7 (2.4, 3)
K m (±SEM) (OCT2 (SLC22A2)): 65 (±91) μM
v max (±SEM) (OCT2 (SLC22A2)): 110 (±56) pmol/mg protein/min
uptake ratio OCT3 (transporter-overexpressing cells over EV control cells): mean (±SD, N) (OCT3 (SLC22A3); 10 μM substrate): 1.6 (0.3, 3)
uptake ratio MATE2K (transporter-overexpressing cells over EV control cells): mean (±SD, N) (MATE2-K (SLC47A2)): 0.8 (0.1, 3)
Structure (SMILES): NCC(O)CN [1,3-diamino-2-propanol]

uptake ratio OCT1 (transporter-overexpressing cells over EV control cells): mean (±SD, N) (OCT1 (SLC22A1); 2.5 μM substrate (§)): 1.1 (0.3, 3)
uptake ratio MATE1 (transporter-overexpressing cells over EV control cells): mean (±SD, N) (MATE1 (SLC47A1)): 1.0 (0.01, 3)
uptake ratio OCT2 (transporter-overexpressing cells over EV control cells): mean (±SD, N) (OCT2 (SLC22A2); 2.5 μM substrate (§)): 5.4 (1.1, 3) ^a
K m (±SEM) (OCT2 (SLC22A2)): 1243 (±938) μM
v max (±SEM) (OCT2 (SLC22A2)): 3103 (±1458) pmol/mg protein/min
uptake ratio OCT3 (transporter-overexpressing cells over EV control cells): mean (±SD, N) (OCT3 (SLC22A3); 2.5 μM substrate (§)): 1.1 (0.3, 3)
uptake ratio MATE2K (transporter-overexpressing cells over EV control cells): mean (±SD, N) (MATE2-K (SLC47A2)): 0.9 (0.3, 3)
Structure (SMILES): NCCCCO [4-amino-1-butanol]

K m (±SEM) (OCT1 (SLC22A1)): 132 (±121) μM
v max (±SEM) (OCT1 (SLC22A1)): 135 (±37) pmol/mg protein/min
substrate activity at OCT1 (in words) (OCT1 (SLC22A1); [1]): notable transport
K m (±SEM) (MATE1 (SLC47A1)): 1040 (±451) μM
v max (±SEM) (MATE1 (SLC47A1)): 10,761 (±2694) pmol/mg protein/min
substrate activity at MATE1 (in words) (MATE1 (SLC47A1)): notable transport
K m (±SEM) (OCT2 (SLC22A2)): 1260 (±452) μM
v max (±SEM) (OCT2 (SLC22A2)): 14,996 (±2181) pmol/mg protein/min
substrate activity at OCT2 (in words) (OCT2 (SLC22A2)): notable transport
K m (±SEM) (OCT3 (SLC22A3)): 5776 (±2458) μM
v max (±SEM) (OCT3 (SLC22A3)): 5271 (±1641) pmol/mg protein/min
substrate activity at OCT3 (in words) (OCT3 (SLC22A3); [1]): notable transport
uptake ratio MATE2K (transporter-overexpressing cells over EV control cells): mean (±SD, N) (MATE2-K (SLC47A2)): 1.2 (0.6, 5)
Structure (SMILES): NCCCCCO [5-amino-1-pentanol]
